Measured values reported in patent US8394968B2, “Hepatitis C virus inhibitors” (Bristol-Myers Squibb Company, priority 2009, dated 2013).
Read-outs that look alike come from different tables or passages of the source.

System: HCV 1b genotype
Experiment: HCV Replicon assay (HCV-neo replicon cells, wild-type; luciferase reporter variants also used)
Assay type: cell-based
Details: Hepatitis C virus, HCV 1b genotype replicon
Protocol: An HCV Replicon assay was utilized in the present disclosure, and was prepared, conducted and validated as described in commonly owned PCT/US2006/022197 and in O'Boyle et. al. Antimicrob Agents Chemother. 2005 April; 49(4):1346-53. Assay methods incorporating luciferase reporters have also been used as described (Apath.com).
HCV-neo replicon cells and replicon cells containing mutations in the NS5A region were used to test the currently described family of compounds. The compounds were determined to have more than 10-fold less inhibitory activity on cells containing mutations than wild-type cells. Thus, the compounds of the present disclosure can be effective in inhibiting the function of the HCV NS5A protein and are understood to be as effective in combinations as previously described in application PCT/US2006/022197 and commonly owned WO/04014852. Further, the compounds of the present disclosure can be effective against the HCV 1b genotype. It should also be understood that the compounds of the present disclosure can inhibit multiple genotypes of HCV. […] In one embodiment, compounds of the present disclosure are inhibitory versus 1a, 1b, 2a, 2b, 3a, 4a, and 5a genotypes.

Row | Structure (SMILES) | EC50 (read-out: EC50) [nM] | EC50 (class symbol, read-out: EC50 Range) [nM]
1 | COC(=O)NC(C(=O)N1CCC[C@H]1c1nc2ccc(-c3ccc(-c4ccc5c(ccc6[nH]c([C@@H]7CCCN7C(=O)C(NC(=O)OC)c7ccccc7)nc65)c4)cc3)cc2[nH]1)c1ccccc1 (stereo in doubt) [J.27c, methyl ((1R)-2-((2S)-2-(7-(4-(2-((2S)-1-((2R)-2-((methoxycarbonyl)amino)-2-phenylacetyl)-2-pyrrolidinyl)-1H-benzimidazol-5-yl)phenyl)-1H-naphtho[1,2-d]imidazol-2-yl)-1-pyrrolidinyl)-2-oxo-1-phenylethyl)carbamate] | 0.003 | –
2 | COC(=O)NC(C(=O)N1CCC[C@H]1c1nc2ccc(C#Cc3cccc(-c4[nH]cnc4[C@@H]4CCCN4C(=O)[C@@H](NC(=O)OC)C(C)C)c3)cc2[nH]1)C(C)C (stereo in doubt) [J.28l, methyl ((1S)-1-(((2S)-2-(5-(3-((2-((2S)-1-((2R)-2-((methoxycarbonyl)amino)-3-methylbutanoyl)-2-pyrrolidinyl)-1H-benzimidazol-5-yl)ethynyl)phenyl)-1H-imidazol-4-yl)-1-pyrrolidinyl)carbonyl)-2-methylpropyl)carbamate] | 7 | 4.57 to 99
